Test [1] has as its target T1, Leishmania infantum trypanothione disulfide reductase (LiTryR) (Leishmania infantum, UniProt A4HSF7).
T1 construct: HIS; made in house; host or cells: E. coli BL21 (DE3) Rossetta 2
In words: LiTryR oxidoreductase activity assay (DTNB-coupled). The conditions noted are these: no preincubation; for IC50: modified DTNB-coupled assay, 26 °C, HEPES pH 7.5, HIS-LiTryR 7 nM, TS2 1 μM, NADPH 150 μM, inhibitor 0.1-25 μM, IC50 ± SE, three independent experiments in triplicate, read-out: IC50act, LiTryR oxidoreductase activity. Format: biochemical. The method, then:
LiTryR oxidoreductase activity was assessed spectrophotometrically using a modified version of the DTNB-coupled assay, described by Hamilton et al.. Briefly, reactions were performed at 26 °C in 250 μL of HEPES buffer (pH 7.5, 40 mM) containing EDTA (1 mM), NADP^+ (30 μM), DTNB (25 μM), TS2 (1 μM), NADPH (150 μM), glycerol (0.02%), DMSO (1.75%), and recombinant HIS-LiTryR (7 nM). […] Reactions were started by addition of a mixture (50 μL/well) of the substrates (NADPH and TS2).
LiTryR oxidoreductase activity was monitored at 26 °C by an increase in absorbance at 412 nm in an EnSpire Multimode Plate Reader (PerkinElmer, Waltham, MA, USA). In this DTNB-coupled assay, one molecule of T(SH)2 reduces one molecule of DTNB, producing two TNB molecules. The TNB concentration was obtained by multiplying the absorbance values by 100 (50 μM TNB generates 0.5 arbitrary units of absorbance at 412 nm).
For IC50 determinations, the initial velocities were calculated from the slope of the initial linear part of the reaction curves. The initial velocities of the reaction progress curves in the presence of inhibitor (concentrations ranging from 0.1 to 25 μM) were normalized as a percentage with respect to the initial velocity in the presence of the inhibitor vehicle (DMSO). IC50 values were obtained by fitting these percentages to a nonlinear regression model with GraFit 6 software (Erithacus, Horley, Surrey, U.K.). All the assays were performed in triplicate.

Test [2] has as its target T2, HIS-FLAG-tagged LiTryR dimer (Leishmania infantum, UniProt A4HSF7).
T2 construct: made in house; host or cells: E. coli BL21 (DE3) Rossetta 2
As to the kind of experiment: LiTryR dimer quantitation assay (ELISA). The format is biochemical. Conditions: 16 h at 37 °C; for IC50: HIS-FLAG-LiTryR 400 nM, Tris pH 8.0, 300 mM NaCl, compounds 25 to 3.1 μM, IC50 ± SE, three independent experiments in triplicate, read-out: IC50dim, LiTryR dimer quantitation. As for the experimental part: The relative amount of the LiTryR dimeric form in the presence of the SMPCs was assessed using an enzyme-linked immunosorbent assay (ELISA), developed in our laboratory. Briefly, HIS-FLAG-tagged LiTryR (400 nM) was incubated in dimerization buffer (1 mL of 50 mM Tris pH 8.0 and 300 mM NaCl) for 16 h at 37 °C with vigorous shaking and in a humid atmosphere in the presence of the different compounds ranging from 25 to 3.1 μM. Following a 15 min centrifugation at 18,000× g and room temperature, the supernatants were added to the α-FLAG-coated plates (200 μL/well) and incubated for 30 min at 37 °C with vigorous shaking in a humid atmosphere. The plates were washed five times with TTBS buffer (2 mM Tris pH 7.6, 138 mM NaCl, and 0.1% Tween-20) and incubated with diluted monoclonal α-HIS horseradish peroxidase (HRP)-conjugated antibody (200 μL/well, 1:50,000, Abcam, Cambridge, UK) in fatty acid- and essentially globulin-free bovine serum albumin (5%) prepared in TTBS buffer for 1 h at room temperature. The plates were washed again five times and the o-phenylenediamine dihydrochloride substrate, prepared according to the manufacturer’s instructions, was added (100 μL/well). The enzymatic reactions were stopped after 5 min by addition of […] (100 μL/well) and the absorbances were measured at 490 nm in an EnSpire Multimode Plate Reader (PerkinElmer, Waltham, MA, USA).
For IC50 determinations, the absorbance values in the presence of different concentrations of inhibitor were normalized as a percentage with respect to the absorbance value in the presence of DMSO. The IC50 values were obtained by fitting these percentages to a nonlinear regression model with GraFit 6 software (Erithacus, Horley, Surrey, U.K.). The assays were carried out in triplicate and repeated three times.
(In an ELISA, binding on a coated surface is turned into a signal by an enzyme label.)

Structures are written as SMILES. Read-outs that look alike come from different tables or passages of the source. Where only a bound is given, the exact number is not on record here.

From paper PMC8308777, “Small Molecule–Peptide Conjugates as Dimerization Inhibitors of Leishmania infantum Trypanothione Disulfide Reductase” (Pharmaceuticals, 2021) come the findings set out here.

T1 sequence (A4HSF7 entry or part of it): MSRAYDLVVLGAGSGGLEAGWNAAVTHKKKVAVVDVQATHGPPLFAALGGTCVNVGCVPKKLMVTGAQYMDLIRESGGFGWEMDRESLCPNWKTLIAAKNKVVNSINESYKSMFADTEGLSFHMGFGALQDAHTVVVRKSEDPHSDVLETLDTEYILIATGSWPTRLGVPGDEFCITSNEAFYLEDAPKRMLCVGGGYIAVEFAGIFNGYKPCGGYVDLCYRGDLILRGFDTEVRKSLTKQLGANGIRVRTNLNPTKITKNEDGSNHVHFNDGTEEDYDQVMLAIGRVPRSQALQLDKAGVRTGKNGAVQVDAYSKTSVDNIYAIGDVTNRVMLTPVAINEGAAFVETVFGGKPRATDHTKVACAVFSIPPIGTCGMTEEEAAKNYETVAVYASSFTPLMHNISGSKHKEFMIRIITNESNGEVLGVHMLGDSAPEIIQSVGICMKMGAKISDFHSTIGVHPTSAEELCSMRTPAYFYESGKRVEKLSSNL
T2 sequence (A4HSF7 entry or part of it): as above

Turning to `CC[C@H](C)[C@H](NC(=O)CNC(=O)[C@@H](NC(=O)[C@H](CO)NC(=O)[C@H](CCC(N)=O)NC(=O)[C@@H](NC(=O)[C@@H](NC(=O)[C@H](CCCCN)NC(=O)[C@@H]1CCCN1C(=O)COCCOCCNC(=O)Cc1ccccc1)[C@@H](C)CC)[C@@H](C)CC)C(C)C)C(N)=O` [1a, Ph-CH2-CO-NH-(CH2)2-O-(CH2)2-O-CH2-CO-NH-PKIIQSVGI-NH2], the IC50 came to 22 ± 0.7 µM in test [1] (SEM) and 9.4 ± 0.1 µM in test [2] (SEM).
The matching figures for `CC[C@H](C)[C@H](NC(=O)CNC(=O)[C@@H](NC(=O)[C@H](CO)NC(=O)[C@H](CCC(N)=O)NC(=O)[C@@H](NC(=O)[C@@H](NC(=O)[C@H](CCCCN)NC(=O)[C@@H]1CCCN1C(=O)COCCOCCNC(=O)Cc1ccc2ccccc2c1)[C@@H](C)CC)[C@@H](C)CC)C(C)C)C(N)=O` [1b, Naphthyl-CH2-CO-NH-(CH2)2-O-(CH2)2-O-CH2-CO-NH-PKIIQSVGI-NH2]: 18.2 ± 1 µM and 8.7 ± 0.5 µM.
In the same order, the values of `CC[C@H](C)[C@H](NC(=O)CNC(=O)[C@@H](NC(=O)[C@H](CO)NC(=O)[C@H](CCC(N)=O)NC(=O)[C@@H](NC(=O)[C@@H](NC(=O)[C@H](CCCCN)NC(=O)[C@@H]1CCCN1C(=O)COCCOCCNC(=O)Cc1ccc(-c2ccccc2)cc1)[C@@H](C)CC)[C@@H](C)CC)C(C)C)C(N)=O` [1c, Biphenyl-CH2-CO-NH-(CH2)2-O-(CH2)2-O-CH2-CO-NH-PKIIQSVGI-NH2] are 16.6 ± 3.8 µM and 22.9 ± 1.4 µM.
In the same order, the values of `CC[C@H](C)[C@H](NC(=O)CNC(=O)[C@@H](NC(=O)[C@H](CO)NC(=O)[C@H](CCC(N)=O)NC(=O)[C@@H](NC(=O)[C@@H](NC(=O)[C@H](CCCCN)NC(=O)[C@@H]1CCCN1C(=O)COCCOCCNC(=O)CN1C(=O)c2cccc3cccc1c23)[C@@H](C)CC)[C@@H](C)CC)C(C)C)C(N)=O` [1d] are 6.7 ± 0.4 µM and 7.8 ± 0.1 µM.
Take `CC[C@H](C)[C@H](NC(=O)CNC(=O)[C@@H](NC(=O)[C@H](CO)NC(=O)[C@H](CCC(N)=O)NC(=O)[C@@H](NC(=O)[C@@H](NC(=O)[C@H](CCCCN)NC(=O)[C@@H]1CCCN1C(=O)COCCNC(=O)Cc1ccccc1)[C@@H](C)CC)[C@@H](C)CC)C(C)C)C(N)=O` [2a, Ph-CH2-CO-NH-(CH2)2-O-CH2-CO-NH-PKIIQSVGI-NH2]: the IC50 in test [1] (SEM) amounted to 22.3 ± 1.5 µM; in test [2] (SEM), 15 ± 0.6 µM.
In the same order, the values of `CC[C@H](C)[C@H](NC(=O)CNC(=O)[C@@H](NC(=O)[C@H](CO)NC(=O)[C@H](CCC(N)=O)NC(=O)[C@@H](NC(=O)[C@@H](NC(=O)[C@H](CCCCN)NC(=O)[C@@H]1CCCN1C(=O)COCCNC(=O)CN1C(=O)c2cccc3cccc1c23)[C@@H](C)CC)[C@@H](C)CC)C(C)C)C(N)=O` [2d] are 6.9 ± 1.9 µM and 7.1 ± 0.1 µM.
Take `CC[C@H](C)[C@H](NC(=O)CNC(=O)[C@@H](NC(=O)[C@H](CO)NC(=O)[C@H](CCC(N)=O)NC(=O)[C@@H](NC(=O)[C@@H](NC(=O)[C@H](CCCCN)NC(=O)[C@@H]1CCCN1C(=O)CCNC(=O)Cc1ccccc1)[C@@H](C)CC)[C@@H](C)CC)C(C)C)C(N)=O` [3a, Ph-CH2-CO-NH-(CH2)2-CO-NH-PKIIQSVGI-NH2]: the IC50 in test [1] (SEM) was 20.6 ± 1.6 µM; in test [2] (SEM), 12.7 ± 1.1 µM.
For `CC[C@H](C)[C@H](NC(=O)CNC(=O)[C@@H](NC(=O)[C@H](CO)NC(=O)[C@H](CCC(N)=O)NC(=O)[C@@H](NC(=O)[C@@H](NC(=O)[C@H](CCCCN)NC(=O)[C@@H]1CCCN1C(=O)Cc1ccccc1)[C@@H](C)CC)[C@@H](C)CC)C(C)C)C(N)=O` [4a, Ph-CH2-CO-NH-PKIIQSVGI-NH2], the results for the IC50 in test [1] (SEM) and in test [2] (SEM) were 10.3 ± 1.8 µM and 11.4 ± 0.1 µM, respectively.
The matching figures for `CC[C@H](C)[C@H](NC(=O)CNC(=O)[C@@H](NC(=O)[C@H](CO)NC(=O)[C@H](CCC(N)=O)NC(=O)[C@@H](NC(=O)[C@@H](NC(=O)[C@H](CCCCN)NC(=O)[C@@H]1CCCN1C(=O)CN1C(=O)c2cccc3cccc1c23)[C@@H](C)CC)[C@@H](C)CC)C(C)C)C(N)=O` [4d]: 8 ± 1.5 µM and 7.1 ± 0.2 µM.
Take `CC[C@H](C)[C@H](NC(=O)CNC(=O)[C@@H](NC(=O)[C@H](CO)NC(=O)[C@H](CCC(N)=O)NC(=O)[C@@H](NC(=O)[C@@H](NC(=O)[C@H](CCCCN)NC(=O)[C@@H]1CCCN1C(C)=O)[C@@H](C)CC)[C@@H](C)CC)C(C)C)C(N)=O` [TRL38, Ac-PKIIQSVGI-NH2, reference compound]: the “LiTryR oxidoreductase activity at 25 μM (%)” value in test [1] (at 25 μM, reliable IC50 could not be determined) was 65.1%. Moreover, in test [1], the IC50 was > 25 µM. Moreover, in test [2], the IC50 is > 25 µM and the “LiTryR dimer at 25 μM (%)” value was found to be 61.4%.
Turning to `CC[C@H](C)[C@H](NC(=O)CNC(=O)[C@@H](NC(=O)[C@H](CO)NC(=O)[C@H](CCC(N)=O)NC(=O)[C@@H](NC(=O)[C@@H](NC(=O)[C@H](CCCCN)NC(=O)[C@@H]1CCCN1C(=O)COCCOCCNCc1ccccc1)[C@@H](C)CC)[C@@H](C)CC)C(C)C)C(N)=O` [compound 7, Ph-CH2-NH-(CH2)2-O-(CH2)2-O-CH2-CO-NH-PKIIQSVGI-NH2], the IC50 in test [1] (SEM) worked out at 8.3 ± 1.4 µM; in test [2] (SEM) it was 12.6 ± 0.6 µM.
The matching figures for `CC[C@H](C)[C@H](NC(=O)CNC(=O)[C@@H](NC(=O)[C@H](CO)NC(=O)[C@H](CCC(N)=O)NC(=O)[C@@H](NC(=O)[C@@H](NC(=O)[C@H](CCCCN)NC(=O)[C@@H]1CCCN1C(=O)COCCOCCN(Cc1ccccc1)Cc1ccccc1)[C@@H](C)CC)[C@@H](C)CC)C(C)C)C(N)=O` [compound 8, (Ph-CH2)2N-(CH2)2-O-(CH2)2-O-CH2-CO-NH-PKIIQSVGI-NH2]: 9.8 ± 2.3 µM and 7.1 ± 0.5 µM.
As to `CC[C@H](C)[C@H](NC(=O)CNC(=O)[C@@H](NC(=O)[C@H](CO)NC(=O)[C@H](CCC(N)=O)NC(=O)[C@@H](NC(=O)[C@@H](NC(=O)[C@H](CCCCN)NC(=O)[C@@H]1CCCN1C(=O)COCCOCC[N+](C)(C)Cc1ccccc1)[C@@H](C)CC)[C@@H](C)CC)C(C)C)C(N)=O` [compound 9, (Ph-CH2)(Me)2N^+-(CH2)2-O-(CH2)2-O-CH2-CO-NH-PKIIQSVGI-NH2 I^−], the IC50 in test [1] (SEM) amounted to 18.3 ± 2.6 µM. Further, in test [2], the IC50 is > 25 µM and the “LiTryR dimer at 25 μM (%)” value turned out to be 53.3%.
With `CC[C@H](C)[C@H](NC(=O)CNC(=O)[C@@H](NC(=O)[C@H](CO)NC(=O)[C@H](CCC(N)=O)NC(=O)[C@@H](NC(=O)[C@@H](NC(=O)[C@H](CCCCN)NC(=O)[C@@H]1CCCN1C(=O)COCCOCC[N+](C)(Cc1ccccc1)Cc1ccccc1)[C@@H](C)CC)[C@@H](C)CC)C(C)C)C(N)=O` [compound 10, (Ph-CH2)2(Me)N^+-(CH2)2-O-(CH2)2-O-CH2-CO-NH-PKIIQSVGI-NH2 I^−], the results for the IC50 in test [1] (SEM) and in test [2] (SEM) were 9.2 ± 1.1 µM and 21.2 ± 3.5 µM, respectively.
